Literature values in patent publication US5281421A, “Gemfibrozil formulations” (Warner-Lambert Company, priority 1992, dated 1994).

Details: particularly in a highly acidic medium

Structure (SMILES): Cc1ccc(C)c(OCCCC(C)(C)C(=O)O)c1 [Gemfibrozil, 5-(2,5-dimethylphenoxy)-2,2-dimethylpentanoic acid]
- solubility in water: very poor solubility in water
